Experimental data: US8742167B2, “Therapeutic formulations based on asiatic acid and selected salts thereof” (Shanghai Institute of Pharmaceutical Industry, priority 2008, dated 2014)
“And” between values parts separate entries of the source, which are not always exact repeats. Identical values can stand only once. “Also recorded” adds a separate entry of the source. Counter-ions that a name gives are not always drawn. Like-named read-outs stand apart in the source and are kept apart here. Marks after values point to notes of the source that are not given here.

Columns and labels:
[1] = system: bleomycin-induced pulmonary fibrosis in rats; assay: Mortality during experiment days 7-28, bleomycin-induced pulmonary fibrosis in rats; format: in vivo, SD rats
Protocol: (§1) Male SD rats, body weight 250-300 g. The animals were anesthetized with 3% seconal, laid flat and fixed onto the operating table. The necks of the animals were disinfected with alcohol and cut to expose tracheae. A needle was inserted via the space between tracheal rings centripetally, and 5 mg/kg of bleomycin was injected. The rats were kept upright and rotated, in order to keep the solution uniformly distributed in the lungs. Then the incisions were sutured.
(§2) After the rats regained consciousness, they were randomly grouped. The animals were divided into (i) a group receiving administration on the next day after establishing the model and (ii) a group receiving administration at 7 days after the model was established. Included were 27, 9, and 3 mg/kg p.o.×28 d asiatic acid groups, 0.6 mg/kg p.o.×28 d dexamethasone group, 36 mg/kg p.o.×28 d asiaticoside group, model group, and blank group. Normal saline was administered for the model and blank groups. On the 28th day after asiatic acid and asiaticoside administration, survival and weight ratio of lungs were measured; pathological examination and serological examination were performed.

[2] = system: bleomycin-induced pulmonary fibrosis in rats; assay: Lung weight index of bleomycin-induced pulmonary fibrosis in rats; format: in vivo, SD rats; conditions: for lung weight ratio (%): (lung weight/body weight)x100%
Protocol: as §1, §2
Effect of on lung weight index of bleomycin-induced pulmonary fibrosis in rats treated with asiatic acid Body weight and lung weight were measured after the rats were sacrificed. Lung weight ratio=(lung weight/body weight)×100%.

[3] = system: TFG-β; assay: Serological test (ELISA kit) of TFG-β in rats of bleomycin-induced pulmonary fibrosis; format: in vivo, SD rats; conditions: serum; for TFG-β (2nd day) X ± SD: dosing from 2nd day; for TFG-β (7th day) X ± SD: dosing from 7th day
Protocol: TFG-β Kit, Human 96T ELISA kit imported by Shanghai Jingmei
as §1, §2
(§3) Serum samples were prepared according to a standard protocol (centrifuged 3000 rpm, 10 minutes after collection) and were stored at −20° C. Testing was conducted in accordance with kit instructions.

[4] = system: TNF-α; assay: Serological test (ELISA kit) of TNF-α in rats of bleomycin-induced pulmonary fibrosis; format: in vivo, SD rats; conditions: serum; for TNF-α (2nd day) X ± SD: dosing from 2nd day; for TNF-α (7th day) X ± SD: dosing from 7th day
Protocol: TNF-α Kit, Human 96T ELISA kit imported by Shanghai Jingmei
as §1, §2, §3

[5] = system: Hydroxyproline; assay: Measured value of hydroxyproline in experiment of asiatic acid antagonizing fibrosis; format: in vivo, SD rats; parameters: Measured Value of Hydroxyproline (on 2nd day), single animals / Measured Value of Hydroxyproline (on 2nd day), X / Measured Value of Hydroxyproline (on 7th day), single animals / Measured Value of Hydroxyproline (on 7th day), X: unit not given here; conditions: for Measured Value of Hydroxyproline (on 2nd day), X / Measured Value of Hydroxyproline (on 7th day), X: group mean
Protocol: as §1, §2

[6] = system: Type III collagen; assay: Type III collagen content, bleomycin rat model; format: in vivo, SD rats
Protocol: as §1, §2

[7] = system: pulmonary fibrosis induced by bleomycin in rats; assay: Pathological analysis of lung (HE staining; collagen fiber and elastic fiber dual staining); format: in vivo, SD rats; conditions: asiaticoside 36 mg/kg; administration on the next day after establishing model
Protocol: as §1, §2
The lung tissues were fixed in 10% formalin for 1 week. […] The thickness of sections was […]. Routine hematoxylin-eosin (HE) staining was performed. Dual special staining of collagen fibers and elastic fibers were conducted in order to detect the degree of fibrosis. The staining of the two groups of sections was observed and the results were as follows.

[8] = Solubility in water and methanol (saturated solutions, HPLC); format: physicochemical; conditions: for Solubility: single preparations (inj 1A-1C)
Protocol: Approximately 5 mg of asiatic acid were transferred into a 25 mL volumetric flask, and 1 mL, of methanol was added and mixed well, until the acid had dissolved in the methanol. The volumetric flask then was brought to volume with mobile phase and mixed well. [table] Saturated solutions obtained from starting material and salt in methanol and water were filtered and diluted accordingly with mobile phase. No dilution was performed for asiatic acid in water. Samples were prepared in triplicate except for the sodium salt prepared in methanol, for which two preparations were done.

[9] = asiaticoside 36 mg/kg, individual rats 1-10
[10] = dexamethasone (0.6 mg/kg), individual rats 1-6

Which results are given for `C[C@H]1[C@H](C)CC[C@]2(C(=O)O[C@@H]3O[C@H](CO[C@@H]4O[C@H](CO)[C@@H](O[C@@H]5O[C@H](C)[C@H](O)[C@@H](O)[C@H]5O)[C@H](O)[C@H]4O)[C@@H](O)[C@H](O)[C@H]3O)CC[C@]3(C)C(=CC[C@@H]4[C@@]5(C)C[C@@H](O)[C@H](O)[C@@](C)(CO)[C@@H]5CC[C@]43C)[C@H]12` [Asiaticoside, asiaticoside]?
remaining samples at the end of study ([1]; asiaticoside 36 mg/kg p.o. x 28 d, dosing started on 2nd day, 14 on day 7): 12; number of deaths ([1]; asiaticoside 36 mg/kg p.o. x 28 d, dosing started on 2nd day, days 7-28): 2; number of deaths ([1]; asiaticoside 36 mg/kg p.o. x 28 d, dosing started on 7th day): 2; remaining samples at the end of study ([1]; asiaticoside 36 mg/kg p.o. x 28 d, dosing started on 7th day, 13 in the group): 11; survival / bleomycin-induced death ([1]; rats treated with bleomycin, treatment initiated one day or seven days after bleomycin): largely prevented bleomycin-induced death; also recorded: significantly enhance survival; lung weight ratio (%) ([2]; asiaticoside 36 mg/kg, started 7 day after model established): 0.80** %; lung weight ratio (%) ([2]; asiaticoside 36 mg/kg, started from the second day): 0.84** %; lung weight (g) X ± SD ([2]; asiaticoside 36 mg/kg, 28-day administration started 7 day after model established): 2.59 ± 0.33 g; lung weight (g) X ± SD ([2]; asiaticoside 36 mg/kg, 28-day administration started from the second day): 2.62 ± 0.38 g; lung weight to body weight ratio ([2]; starting on 2nd or 7th day, compared with the model group): significantly decrease bleomycin-induced lung fibrosis; TFG-β (2nd day) X ± SD ([3]; asiaticoside 36 mg/kg): 0.670 ± 0.155 OD value; TFG-β (7th day) X ± SD ([3]; asiaticoside 36 mg/kg): 1.181 ± 0.364 OD value; TNF-α (2nd day) X ± SD ([4]; asiaticoside 36 mg/kg): 0.064 ± 0.013 OD value; TNF-α (7th day) X ± SD ([4]; asiaticoside 36 mg/kg): 0.091 ± 0.027 OD value; Measured Value of Hydroxyproline (on 2nd day), X ([5]; asiaticoside 36 mg/kg): 24.11; Measured Value of Hydroxyproline (on 7th day), X ([5]; asiaticoside 36 mg/kg): 26.57; Measured Value of Hydroxyproline (on 2nd day), single animals [5, 9]: 28.56 and 28.69 and 19.63 and 25.34 and 28.11 and 20.54 and 25.36 and 19.47 and 25.25 and 20.11; Measured Value of Hydroxyproline (on 7th day), single animals [5, 9]: 28.19 and 24.36 and 28.17 and 24.69 and 29.1 and 25.11 and 25.91 and 24.97 and 29.69 and 25.55; serum levels of hydroxyproline ([5]; overall statement): significantly decrease bleomycin-induced fibrosis; serum levels of type III collagen ([6]; overall statement): significantly decrease bleomycin-induced fibrosis; lung pathology, HE staining [7]: less serious than those of the model group

What does the source list for `C[C@H]1[C@H](C)CC[C@]2(C(=O)O)CC[C@]3(C)C(=CC[C@@H]4[C@@]5(C)C[C@@H](O)[C@H](O)[C@@](C)(CO)[C@@H]5CC[C@]43C)[C@H]12` [Asiatic acid-Na salt NaOH, asiatic acid sodium salt]?
Solubility ([8]; MeOH, sodium salt): 24080 µg/mL; Solubility ([8]; methanol, organic solvent or mixture, thermodynamic from solid, MeOH, read-out: Solubility): 25400 µg/mL; times more soluble than asiatic acid ([8]; water): ~228 times; Solubility ([8]; water, thermodynamic from solid, water, read-out: Solubility): 6860 µg/mL; Solubility ([8]; water, sodium salt): 6360 µg/mL and 7320 µg/mL

Which “remaining samples at the end of study” value ([1]; dexamethasone 0.6 mg/kg p.o. x 28 d, dosing started on 2nd day, 14 on day 7) does the source give for `C[C@@H]1C[C@H]2[C@@H]3CCC4=CC(=O)C=C[C@]4(C)[C@@]3(F)[C@@H](O)C[C@]2(C)[C@@]1(O)C(=O)CO` [Dexamethasone, reference compound] here?
Its value is 6.

And the number of deaths ([1]; dexamethasone 0.6 mg/kg p.o. x 28 d, dosing started on 2nd day, days 7-28)?
Its number of deaths is 8.

What about the number of deaths ([1]; dexamethasone 0.6 mg/kg p.o. x 28 d, dosing started on 7th day) of the same compound?
Its number of deaths is 7.

And the “remaining samples at the end of study” value ([1]; dexamethasone 0.6 mg/kg p.o. x 28 d, dosing started on 7th day, 13 in the group)?
Its value is 6.

And the “lung weight ratio (%)” value ([2]; dexamethasone 0.6 mg/kg, started 7 day after model established)?
The value was 1.14%.

And the “lung weight ratio (%)” value ([2]; dexamethasone 0.6 mg/kg, started from the second day)?
Its value is 1.31%.

What about the “lung weight (g) X ± SD” value ([2]; dexamethasone 0.6 mg/kg, 28-day administration started 7 day after model established) of the same compound?
Its value is 2.05 ± 0.40 g.

What about the “lung weight (g) X ± SD” value ([2]; dexamethasone 0.6 mg/kg, 28-day administration started from the second day) of the same compound?
Its value is 2.06 ± 0.52 g.

What about the “TFG-β (2nd day) X ± SD” value ([3]; dexamethasone 0.6 mg/kg) of the same compound?
The value was 0.751 ± 0.214 OD value.

What about the “TFG-β (7th day) X ± SD” value ([3]; dexamethasone 0.6 mg/kg) of the same compound?
The value was 0.717 ± 0.197 OD value.

What about the “TNF-α (2nd day) X ± SD” value ([4]; dexamethasone 0.6 mg/kg) of the same compound?
Its value is 0.073 ± 0.006 OD value.

And the “TNF-α (7th day) X ± SD” value ([4]; dexamethasone 0.6 mg/kg)?
Its value is 0.060 ± 0.006 OD value.

What about the “Measured Value of Hydroxyproline (on 2nd day), X” value ([5]; dexamethasone (0.6 mg/kg)) of the same compound?
The value was 23.45.

And the “Measured Value of Hydroxyproline (on 7th day), X” value ([5]; dexamethasone (0.6 mg/kg))?
Its value is 27.35.

What about the “Measured Value of Hydroxyproline (on 2nd day), single animals” value [5, 10] of the same compound?
Its value is 19.86 and 23.31 and 21.69 and 24.63 and 25.36 and 25.87.

And the “Measured Value of Hydroxyproline (on 7th day), single animals” value [5, 10]?
Its value is 25.17 and 27.44 and 25.99 and 29.66 and 28.07 and 27.75.

And the “Type III collagen content X ± SD” value ([6]; Dex (0.6 mg/kg), treatment starting on Day 7)?
Its value is 0.518 ± 0.527.
